{"source": "patent US7582417B2", "about": "“Sequential reporter enzyme luminescence (SRL) methods and compositions for practicing the same” (The Board of Trustees of the Leland Stanford Junior …, priority 2006, dated 2009)", "key": {"[1]": {"target": "T1, β-gal activity of implanted FLuc/LacZ cells (Escherichia coli, UniProt P00722)", "T1 sequence (P00722 whole entry)": "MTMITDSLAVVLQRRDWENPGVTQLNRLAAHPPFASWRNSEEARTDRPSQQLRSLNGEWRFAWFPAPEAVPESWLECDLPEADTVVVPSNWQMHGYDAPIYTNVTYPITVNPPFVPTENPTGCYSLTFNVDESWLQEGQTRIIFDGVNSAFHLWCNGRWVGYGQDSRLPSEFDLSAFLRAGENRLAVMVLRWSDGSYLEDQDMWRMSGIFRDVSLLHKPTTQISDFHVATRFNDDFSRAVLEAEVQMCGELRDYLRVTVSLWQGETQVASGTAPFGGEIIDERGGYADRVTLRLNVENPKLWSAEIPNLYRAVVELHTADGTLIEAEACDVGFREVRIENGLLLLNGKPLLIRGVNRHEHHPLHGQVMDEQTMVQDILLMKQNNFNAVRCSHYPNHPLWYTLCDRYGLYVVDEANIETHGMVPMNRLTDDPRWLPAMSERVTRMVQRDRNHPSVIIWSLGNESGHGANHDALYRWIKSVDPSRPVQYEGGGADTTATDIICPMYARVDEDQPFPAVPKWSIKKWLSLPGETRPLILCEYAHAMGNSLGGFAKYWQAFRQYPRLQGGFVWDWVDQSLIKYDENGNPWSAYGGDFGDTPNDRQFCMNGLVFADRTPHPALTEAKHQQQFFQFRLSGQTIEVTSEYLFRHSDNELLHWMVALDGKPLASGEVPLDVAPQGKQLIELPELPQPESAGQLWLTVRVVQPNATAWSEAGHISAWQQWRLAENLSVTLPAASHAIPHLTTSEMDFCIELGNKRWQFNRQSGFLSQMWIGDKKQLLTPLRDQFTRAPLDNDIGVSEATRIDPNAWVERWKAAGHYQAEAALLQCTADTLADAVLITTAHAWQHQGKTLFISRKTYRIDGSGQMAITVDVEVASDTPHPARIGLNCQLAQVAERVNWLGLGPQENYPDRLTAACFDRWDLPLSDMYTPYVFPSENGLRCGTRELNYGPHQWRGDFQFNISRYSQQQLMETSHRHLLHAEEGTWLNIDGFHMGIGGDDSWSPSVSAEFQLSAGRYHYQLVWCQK", "assay": "Near-infrared fluorescent imaging of β-gal activity with DDAOG", "type": "in vivo, mouse", "parameters": "expressed in transfected cells; host or cells: C2C12 mouse myoblasts, retrovirally transduced (FLuc/LacZ cells)", "details": "1×10^6 cells, right vs left leg", "description": "The near-infrared imaging probe DDAOG (Molecular Probes) was injected intravenously (0.5 mg of DDAOG in 100 μl of DMSO and PBS (1:1)). NIRF reflectance imaging was performed using an IVIS-200 imager (Xenogen) with a custom filter set (excitation: 615-645; emission: 680-720 nm) (Omega Optical). Images were continuously acquired over 45 min after substrate injection and the images showing optimal signal-to-noise ratios were chosen for comparison."}, "[2]": {"details": "published value; cited from earlier work"}, "[3]": {"target": "T2, mouse angiotensin receptor 1 (AGTR1) (Mus musculus, UniProt P29754)", "T2 construct": "expressed in transfected cells; host or cells: C2C12 myoblasts, retrovirally transduced", "T2 sequence (P29754 whole entry)": "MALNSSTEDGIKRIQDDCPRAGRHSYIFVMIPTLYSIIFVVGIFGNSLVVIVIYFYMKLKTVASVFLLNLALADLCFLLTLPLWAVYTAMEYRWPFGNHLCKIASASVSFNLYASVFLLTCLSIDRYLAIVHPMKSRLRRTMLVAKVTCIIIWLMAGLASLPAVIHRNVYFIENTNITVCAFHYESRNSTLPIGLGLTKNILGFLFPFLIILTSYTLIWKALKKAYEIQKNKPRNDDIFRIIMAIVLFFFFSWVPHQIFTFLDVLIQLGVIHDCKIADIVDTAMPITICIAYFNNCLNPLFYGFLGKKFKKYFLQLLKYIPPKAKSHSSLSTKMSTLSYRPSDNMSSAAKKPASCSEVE", "T2 sequence (P32121 whole entry partner)": "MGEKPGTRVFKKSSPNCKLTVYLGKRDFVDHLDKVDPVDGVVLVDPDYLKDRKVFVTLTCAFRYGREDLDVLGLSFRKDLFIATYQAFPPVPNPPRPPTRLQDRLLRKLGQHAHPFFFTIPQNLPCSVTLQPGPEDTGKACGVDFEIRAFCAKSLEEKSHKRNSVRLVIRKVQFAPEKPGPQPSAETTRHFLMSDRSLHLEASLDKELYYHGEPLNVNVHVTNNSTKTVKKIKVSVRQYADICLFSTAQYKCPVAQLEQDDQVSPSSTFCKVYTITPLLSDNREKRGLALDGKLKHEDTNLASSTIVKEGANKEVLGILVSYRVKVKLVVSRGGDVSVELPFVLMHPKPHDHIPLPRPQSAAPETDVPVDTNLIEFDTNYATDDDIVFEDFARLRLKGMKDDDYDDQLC", "assay": "GPCR/arrestin β-gal complementation assay, AGTR1 cell line", "type": "cell-based", "protocol": "Cells expressing the GPCR-α* and β-arrestin2-ω fusions were seeded at 20,000 cells/well in a 96-well dish overnight. Ligand was added for 1 hour. Media is aspirated and 50 ul of lysis solution (buffer A) and substrate (Gal-screen) in a 25:1 ratio was added to each well. The plates were incubated for 60-90 min at room temperature before reading in a TR717 luminometer with an integration time of 1 second. EC50 values were calculated using non-linear regression with a variable slope sigmoidal dose response algorithm in Prism software (Graphpad).\nTo test the sensitivity of the GPCR/arrestin assay, each cell line was plated in a 96-well dish and treated for 60 minutes with escalating doses of the indicated agonist (FIG. 9B). β-gal activity was measured using a luminescent substrate (Tropix)."}, "[4]": {"target": "T3, somatostatin 2 receptor (SSTR2) (Homo sapiens, UniProt P30874)", "T3 construct": "expressed in transfected cells; host or cells: C2C12 myoblasts, retrovirally transduced; the in vivo cells also carry Ras and FLuc", "T3 sequence (P30874 whole entry)": "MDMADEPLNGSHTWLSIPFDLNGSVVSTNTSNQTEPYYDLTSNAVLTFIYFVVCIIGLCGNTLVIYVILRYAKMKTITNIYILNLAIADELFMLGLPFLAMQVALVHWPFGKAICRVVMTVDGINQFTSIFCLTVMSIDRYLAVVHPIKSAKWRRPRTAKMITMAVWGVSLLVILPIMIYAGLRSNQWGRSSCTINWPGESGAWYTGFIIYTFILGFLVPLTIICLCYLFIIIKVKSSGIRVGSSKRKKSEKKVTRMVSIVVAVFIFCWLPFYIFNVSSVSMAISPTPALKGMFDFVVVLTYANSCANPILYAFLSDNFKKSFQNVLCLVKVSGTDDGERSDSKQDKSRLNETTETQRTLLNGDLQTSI", "T3 sequence (P32121 whole entry partner)": "as the sequence (P32121 whole entry partner) above", "assay": "In vivo luminescent imaging of somatostatin 2 receptor activation (SSTR2/Fluc cells in BALB/c nude mice, Lugal)", "details": "after octreotide i.p.", "text": "All protocols were approved by the Administrative Panel on Laboratory Animal Care at Stanford University School of Medicine. BALB/c nude were obtained from the Stanford University in-house colony. C2C12 myoblasts were harvested and suspended in 0.5% BSA in PBS at a final concentration of 10^8 cells/ml for injection. 4×10^6 cells carrying the β2/arrestin β-gal/Ras/FLuc or the SSTR2/arrestin β-gal/Ras/FLuc constructs were subcutaneously into the back of mice (2 injections/mouse), and allowed to grow into small tumors over 7 to 14 days.\nImaging was carried out using a Xenogen-100 device as previously described. Briefly, the system is composed of a light-tight imaging chamber, a digital CCD camera colled by a cryogenic refrigeration unit and a computer system (Living Image™ 2.50 software, Xenogen, Alameda).\nWe engineered new cell lines carrying the SSTR2/arrestin-β-galactosidase construct by retroviral transduction with the Fluc and ras genes (SSTR2/Fluc)."}, "[5]": {"target": "β-gal activity in FLuc/LacZ C2C12 cells (Escherichia coli, UniProt P00722)", "sequence (P00722 whole entry)": "as the sequence (P00722 whole entry) above", "description": "The parental MFG-IRES-lyt-2 construct was used to generate the lyt-2 expressing myoblasts. Retroviral transduction was performed using the ecotropic ΦNX packaging cell line (generous gift of GP Nolan). This line was transiently transfected with the proviral constructs using Fugene transfection reagent (Boehringer Mannheim). […] Polybrene was added to a final concentration of 8 μg/ml (Sigma) and cells were spun at 2,000 RPM in a Beckman GS-6 centrifuge. Cells transduced with the Luciferase-IRES-lyt-2 construct or the parental MFG-IRES-lyt-2 construct were stained with an anti-lyt-2 antibody conjugated to APC (BD Pharmingen). Cells were sorted by FACS on a Becton Dickinson flow cytometer with MoFlo electronics. […] For the in vitro cell studies, C2C12 cells were seeded in growth medium into a 384-well dish. […] The plate was read on a Tropix TR717 luminometer at room temperature with an integration time of 1 s/well. […] Cell lysates were prepared by aspirating the media and adding 15 ul of lysis buffer (1% Triton-X100, 50 mM Tris-HCl, 10 mM MgCl2, 10 mM DTT, 1 mM ATP, pH 7.5). For wells with intact cells, 15 ul of PBS was substituted for lysis buffer. The substrates were added at equivalent volumes to bring the reaction volume to 30 ul."}, "[6]": {"target": "T1, β-gal activity of implanted FLuc/LacZ cells", "description": "Imaging was performed using a Xenogen-100 device as previously described (Cao et al., supra). Briefly, the system is comprised of a light-tight imaging chamber, a cooled digital CCD camera with a cryogenic refrigeration unit and the appropriate computer system (Living Image™ 2.50 software, Xenogen, Alameda). […] C2C12 myoblasts were harvested and suspended in 0.5% BSA in PBS at a final concentration of 10^8 cells/ml for injection. For experiment shown in FIG. 1e, 10^6 cells expressing LacZ and FLuc (FLuc/LacZ cells) were injected into the right tibialis anterior muscle (TA) and 10^6 cells expressing FLuc only (FLuc cells) into the left TA of BALB/c nude mice. […] For experiment shown in FIGS. 2a and 2b, a range of cell numbers between 5×10^4 and 2×10^6 were injected subcutaneously in 10 different locations of the back of BALB/c nude mice."}}}
{"compound": "CC1(C)C2=C(Cl)C(=O)C(Cl)=CC2=Nc2ccc(O[C@@H]3O[C@H](CO)[C@H](O)[C@H](O)[C@H]3O)cc21", "note": "[DDAOG, 7-hydroxy-9H-(1,3-dichloro-9,9-dimethylacridin-2-one) β-D-galactoside]", "values": [{"measurement": "signal-to-noise ratio, fluorescence imaging, leg muscles", "setting": "[1]", "value": 2.8, "unit": "fold"}]}
{"compound": "CC(C)NCC(O)c1ccc(O)c(O)c1", "note": "(stereo not drawn) [isoproterenol]", "values": [{"measurement": "serum half life", "setting": "[2]", "value": "approx. 2 hours"}]}
{"compound": "angiotensin (DRVYIHPF; Angiotensin-2; UniProt P01019 25-32, looked up) [AGTR1 agonist obtained from Sigma]", "values": [{"measurement": "EC50", "setting": "[3]", "value": "in good agreement with radiolabeled ligand binding assays"}, {"measurement": "increase in β-galactosidase activity", "setting": "[3]; 60 minutes agonist", "value": "greater than 15 fold"}]}
{"compound": "C[C@@H](O)[C@@H]1NC(=O)[C@H](CCCCN)NC(=O)[C@@H](Cc2c[nH]c3ccccc23)NC(=O)[C@H](Cc2ccccc2)NC(=O)[C@@H](NC(=O)[C@H](N)Cc2ccccc2)CSSC[C@@H](C(=O)N[C@H](CO)[C@@H](C)O)NC1=O", "note": "[octreotide]", "values": [{"measurement": "time for luminescence to return to baseline", "setting": "[4]", "value": 24, "unit": "h"}, {"measurement": "time for luminescence to return to baseline", "setting": "[4]; listed as Octreotide", "value": "≤ 24", "unit": "h"}, {"measurement": "serum half life", "setting": "[2]", "value": "approx. 6 hours"}]}
{"compound": "D-luciferin-O-β-galactopyranoside [Lugal]", "values": [{"measurement": "Lugal concentration at which strong luminescent signals were generated", "setting": "[5]; FLuc/LacZ C2C12 cells, 384-well dish, concentrations as low as", "value": 10, "unit": "µg/mL"}, {"measurement": "Lugal concentration at which a measurable signal was generated without β-gal", "setting": "[5]; cells expressing FLuc alone, only at the highest concentration", "value": 1000, "unit": "µg/mL"}, {"measurement": "bioluminescence signal of FLuc/LacZ cells relative to FLuc cells", "setting": "[6]; 1×10^6 cells per tibialis anterior, right vs left leg, i.p. Lugal", "value": "30-200 fold"}, {"measurement": "signal-to-noise ratio, luminescence imaging, leg muscles", "setting": "[6]; 1×10^6 cells, right vs left leg", "value": 429, "unit": "fold"}, {"measurement": "signal-to-noise ratio of Lugal relative to DDAOG, deeper tissues (skeletal muscle)", "setting": "[6]; higher with Lugal", "value": 150, "unit": "fold"}]}
